Where “and” joins values, the source holds several entries; their conditions need not be identical. Equal values may be shown once.
Tested on: 922993-354-T-J3-PDC complex spheroid viability
Assay: Anticancer human tumor 922993-354-T-J3-PDC patient-derived endometrial carcinoma cell line growth inhibition [POLQ]
Settings: for viability, T/C: stronger effect = lower value
Experimental: Multicellular complex tumor spheroid response to Polymerase (POL) inhibitors (novobiocin, ART-558, RP6685) in combination with a variety of drugs and investigational agents in selected tumor cell lines
The POL inhibitors (novobiocin, ART-558, and RP6685) were evaluated both individually and in combination with standard of care and investigational anticancer small molecules within a complex spheroid model of solid tumors. . Complex spheroids include a stromal component modeled by human endothelial cells (HUVEC) and fibroblasts modeled by human mesenchymal stem cells (MSCs). The concentration ranges selected for each drug and investigational agent were based upon clinically achievable concentrations if the clinical Cmax of the agent was known.
Compounds. The drugs and investigational agents: novobiocin (NSC847541), ART-558 (NSC835418), RP-6685 (NSC848927), peposertib (NSC802822), ceralasertib (NSC780249), elimusertib (NSC800525), camonsertib (NSC841442), AZD-1390 (NSC803789), olaparib (NSC753686), talazoparib (NSC767125), rucaparib (NSC756644), sotorasib (NSC818433), MRTX-1133 (NSC836407), SN-38 (NSC673596), topotecan (NSC609699), epotoside (NSC141540), doxorubicin (NSC123127), gemcitabine (NSC613327), 5-fluorouracil (NSC19893), paclitaxel (NSC125973), vemurafenib (NSC761431), MSA-2 (NSC828583), SN-011 (NSC837082), adavosertib (NSC754352), prexasertib (NSC758257), carboplatin (NSC241240) and oxaliplatin (NSC266046), were obtained from the National Cancer Institute (NCI) Developmental Therapeutics Program Chemical Repository (21). The FDA-approved anticancer drug set is available from the Developmental Therapeutics Program at https://dtp.cancer.gov/organization/dscb/obtaining/. […] The stock solutions were prepared in dimethyl sulfoxide (DMSO, Sigma-Aldrich, St. Louis, MO, cat. D2650), except for the platinum compounds which were prepared in saline (Quality Biological, Gaithersburg, MD, cat. 114-055-101), at 800-fold the tested concentration and stored at -70 degrees C prior to their use. All drugs and investigational agents were tested over a range starting from a high concentration at or near the clinical Cmax and decreasing in half-log increments. If the clinical Cmax for an agent had not been determined, the highest concentration tested was 10 microM, except for SN-38, which was tested at a high concentration of 1 microM.
Cell Culture. All cells were maintained in an incubator at 37 degrees C and 5% CO2 with 95% humidity. The PDC lines were cultured according to standard operating procedures established by the NCI PDMR (https://pdmr.cancer.gov). Table 3 of the manuscript, lists the cell lines along with the number of the three cell types plated to form the mct-spheroids and media for tumor cell growth. After thawing, all PDC lines, except 997537-175-T-J1-PDC and 415267-285-R-J2-PDC, were cultured in Matrigel-coated flasks prepared with a working solution of 1X Ham's F-12 nutrient mix, without supplementation (Thermo Fisher Scientific, cat. 11765054), 100 U/mL penicillin-streptomycin (Thermo Fisher Scientific, cat. 15140122), and 2.5% Matrigel (Corning Inc., Corning, NY, cat. 354248) for the first three passages. The two PDC lines 997537-175-T-J1-PDC and 415267-285-R-J2-PDC were cultured on uncoated flasks. The 857933-349-R-J2-PDC line was cultured in 6C/Colon 1B media containing advanced DMEM/F-12 (Thermo Fisher Scientific, cat. 12634028), 10 mM HEPES (Thermo Fisher Scientific, cat. 15630080), 1X GlutaMAX supplement (Thermo Fisher Scientific, cat. 35050061), 0.1 mg/mL primocin (InvivoGen, San Diego, CA, cat. ant-pm-2), 10% defined fetal bovine serum, heat inactivated (HyClone Laboratories Inc., Logan, UT, cat. SH30070.03HI), 50% L-WRN conditioned media (ATCC, cat. CRL-3276), 1.25 mM N-Acetyl-L-cysteine (Sigma-Aldrich, cat. A9165), 10 mM nicotinamide (Sigma-Aldrich, cat. N0636), 1X B-27 supplement (Thermo Fisher Scientific, cat. 17504044), 1X N-2 supplement (Thermo Fisher Scientific, cat. […]

[1] = compound alone, run of 11/06/2023
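Also: spheroids exposed to the agents for one week.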
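For viability, T/C in this document: 100% = DMSO vehicle control wells.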

Nc1ccc(C#CCN(C(=O)Cc2ncc(C(F)(F)F)cc2C(F)(F)F)c2ccc(F)cc2)nn1
viability, T/C (compound 0.0316 µM): 103% [middle of 13 runs] | viability, T/C (compound 0.1 µM): 102% [middle of 12 runs] | viability, T/C (compound 0.316 µM): 102% [middle of 13 runs] | viability, T/C (compound 1 µM): 101% [middle of 13 runs] | viability, T/C (compound 3.16 µM): 101% [middle of 13 runs] | viability, T/C (compound 10 µM): 98% [middle of 13 runs] | IC50 [1]: > 10 µM

O=C(Nc1ccc(O)c(NS(=O)(=O)c2ccc(F)cc2)c1)c1ccc(-c2ccccc2)cc1 + COC1C(OC(N)=O)C(O)C(Oc2ccc3c(O)c(NC(=O)c4ccc(O)c(CC=C(C)C)c4)c(=O)oc3c2C)OC1(C)C
IC50 (curve of first compound, second compound 0.0316 µM): > 10 µM | IC50 (curve of first compound, second compound 0.1 µM): > 10 µM | IC50 (curve of first compound, second compound 0.316 µM): > 10 µM | IC50 (curve of first compound, second compound 1 µM): > 10 µM | IC50 (curve of first compound, second compound 3.16 µM): > 10 µM | IC50 (curve of first compound, second compound 10 µM): > 10 µM | viability, T/C (second compound 0.0316 µM, first compound 0.0316 µM): 107% | viability, T/C (second compound 0.0316 µM, first compound 0.1 µM): 91.7% | viability, T/C (second compound 0.0316 µM, first compound 0.316 µM): 95.1% | viability, T/C (second compound 0.0316 µM, first compound 1 µM): 98.3% | viability, T/C (second compound 0.0316 µM, first compound 3.16 µM): 99.8% | viability, T/C (second compound 0.0316 µM, first compound 10 µM): 95.6% | viability, T/C (second compound 0.1 µM, first compound 0.0316 µM): 116% | viability, T/C (second compound 0.1 µM, first compound 0.1 µM): 97.1% | viability, T/C (second compound 0.1 µM, first compound 0.316 µM): 101% | viability, T/C (second compound 0.1 µM, first compound 1 µM): 99.3% | viability, T/C (second compound 0.1 µM, first compound 3.16 µM): 84% | viability, T/C (second compound 0.1 µM, first compound 10 µM): 102% | viability, T/C (second compound 0.316 µM, first compound 0.0316 µM): 104% | viability, T/C (second compound 0.316 µM, first compound 0.1 µM): 100% | viability, T/C (second compound 0.316 µM, first compound 0.316 µM): 97.5% | viability, T/C (second compound 0.316 µM, first compound 1 µM): 101% | viability, T/C (second compound 0.316 µM, first compound 3.16 µM): 93.3% | viability, T/C (second compound 0.316 µM, first compound 10 µM): 101% | viability, T/C (second compound 1 µM, first compound 0.0316 µM): 104% | viability, T/C (second compound 1 µM, first compound 0.1 µM): 97.4% | viability, T/C (second compound 1 µM, first compound 0.316 µM): 97.6% | viability, T/C (second compound 1 µM, first compound 1 µM): 96.4% | viability, T/C (second compound 1 µM, first compound 3.16 µM): 101% | viability, T/C (second compound 1 µM, first compound 10 µM): 94.7% | viability, T/C (second compound 3.16 µM, first compound 0.0316 µM): 93.9% | viability, T/C (second compound 3.16 µM, first compound 0.1 µM): 92.2% | viability, T/C (second compound 3.16 µM, first compound 0.316 µM): 93.7% | viability, T/C (second compound 3.16 µM, first compound 1 µM): 90.8% | viability, T/C (second compound 3.16 µM, first compound 3.16 µM): 107% | viability, T/C (second compound 3.16 µM, first compound 10 µM): 94.2% | viability, T/C (second compound 10 µM, first compound 0.0316 µM): 86.2% | viability, T/C (second compound 10 µM, first compound 0.1 µM): 81.1% | viability, T/C (second compound 10 µM, first compound 0.316 µM): 97.8% | viability, T/C (second compound 10 µM, first compound 1 µM): 73.7% | viability, T/C (second compound 10 µM, first compound 3.16 µM): 89.3% | viability, T/C (second compound 10 µM, first compound 10 µM): 96.5%

CC1COCCN1c1cc(C2(S(C)(=N)=O)CC2)nc(-c2ccnc3[nH]ccc23)n1 (stereo not given)
viability, T/C (compound 0.0316 µM): 98.8% and 101% and 94% | viability, T/C (compound 0.1 µM): 94.9% and 100% and 90.1% | viability, T/C (compound 0.316 µM): 91.1% and 101% (2×) | viability, T/C (compound 1 µM): 97% and 102% and 99.8% | viability, T/C (compound 3.16 µM): 93.2% and 104% and 78.1% | viability, T/C (compound 10 µM): 46.8% and 92.4% and 45% | IC50 (curve of compound): 9.23 µM and > 10 µM and 8.4 µM

C#Cc1c(F)ccc2cc(O)cc(-c3ncc4c(N5CC6CCC(C5)N6)nc(OCC56CCCN5CC(F)C6)nc4c3F)c12 (stereo not given)
viability, T/C (compound 0.0316 µM): 108% and 107% and 101% | viability, T/C (compound 0.1 µM): 95.9% and 99.1% and 99.3% | viability, T/C (compound 0.316 µM): 97.7% and 108% and 93.2% | viability, T/C (compound 1 µM): 110% and 99.2% and 95% | viability, T/C (compound 3.16 µM): 96% and 102% and 92.8% | viability, T/C (compound 10 µM): 98.1% and 99.6% and 90.1% | IC50 (curve of compound): > 10 µM

Cc1cccc(N(C)C(=O)C2C(O)CCN2c2nc(C)cc(C(F)(F)F)c2C#N)c1 (stereo not given)
viability, T/C (compound 0.0316 µM): 102% [middle of 13 runs] | viability, T/C (compound 0.1 µM): 101% [middle of 13 runs] | viability, T/C (compound 0.316 µM): 103% [middle of 13 runs] | viability, T/C (compound 1 µM): 103% [middle of 13 runs] | viability, T/C (compound 3.16 µM): 103% [middle of 13 runs] | viability, T/C (compound 10 µM): 105% [middle of 13 runs] | IC50 (compound alone, run of 10/31/2023): > 10 µM | IC50 [1]: > 10 µM

COc1ccc([C@@H](O)c2cc(-c3ncnc4cc(N5CCOCC5)ccc34)c(F)cc2Cl)nn1
viability, T/C (compound 0.0316 µM): 95.5% and 103% and 107% | viability, T/C (compound 0.1 µM): 84.6% and 101% and 89.6% | viability, T/C (compound 0.316 µM): 99.2% and 98.3% and 96.1% | viability, T/C (compound 1 µM): 92.9% and 97.3% and 99.2% | viability, T/C (compound 3.16 µM): 78.1% and 90.2% and 83.4% | viability, T/C (compound 10 µM): 57% and 75% and 62.1% | IC50 (curve of compound): > 10 µM

O=C(Nc1ccc(O)c(NS(=O)(=O)c2ccc(F)cc2)c1)c1ccc(-c2ccccc2)cc1
viability, T/C (compound 0.0316 µM): 108% and 103% and 104% | viability, T/C (compound 0.1 µM): 106% and 103% and 91.7% | viability, T/C (compound 0.316 µM): 104% and 99.2% and 89.1% | viability, T/C (compound 1 µM): 99.6% and 101% and 99.3% | viability, T/C (compound 3.16 µM): 108% and 105% and 96.4% | viability, T/C (compound 10 µM): 112% and 101% and 90.3% | IC50 (curve of compound): > 10 µM
